# Results taken from US20230172940A1, “METHODS OF EXTENDING LIFESPAN BY ADMINISTERING FERROPTOSIS INHIBITORS” (COLLABORATIVE MEDICINAL DEVELOPMENT, LLC, priority 2020, published 2023).
# System: C. elegans iron-proteome
# Test: Size exclusion chromatography-ICP-MS of soluble iron
# Format: in vivo, Caenorhabditis elegans
# Details: aged C. elegans (10 days post adulthood)
# Protocol: Liquid chromatography was performed using established protocols. Briefly^o samples of aged C. elegans were lysed using a Bioruptor Next Gen (Diagenode) bath sonicator set on HIGH and cooled to 4° C. using 10 cycles of 10 sec ON and 10 sec OFF^o in a 1:1 volume ratio of Tris-buffered saline (pH 8.0) with added proteinase inhibitors (EDTA-free; Roche). Sample homogenization was confirmed by microscopic inspection. Lysates were then centrifuged for 15 min at 175^o000 g at 4° C. The supernatant was removed and total protein concentration in the soluble fraction was determined using a NanoDrop UV spectrometer (Thermo Fisher Scientific) before being transferred to standard chromatography vials with polypropylene inserts (Agilent Technologies) and kept at 4° C. on a Peltier cooler for analysis. Size exclusion chromatography-inductively coupled plasma-mass spectrometry was performed using an Agilent Technologies 1100 Series liquid chromatography system with a BioSEC 5 SEC column (5 μm particle size^o 300 Å pore size^o I.D. 4.6 mm^o Agilent Technologies) and 7700× Series ICP-MS as previously described (Hare et al.^o 2016b). A buffer of 200 mM NH4NO3 was used for all separations at a flow rate of 0.4 mL min^−1. A total of 50 μg of soluble protein was loaded onto the column by manually adjusting the injection volume for each sample. Mass-to-charge ratios (m/z) for phosphorus (31) and iron (56) were monitored in time resolved analysis mode. Plots of the mean (±standard deviation) of three independent biological replicates are shown. Integration of the three major peaks was performed using Prism (ver. 7 for Mac OS X, Graphpad).
smiles,measurement,value
"O=C(N/N=C/c1ccccc1O)c1ccncc1 [SIH, Salicylaldehyde isonicotinoyl hydrazone]","Ferritin-bound iron, normalized peak area",approximately 50%
same,"iron associated with the LMW peak, normalized peak area",approximately 40%
same,iron bound within HMW species,unaffected
